Reference: patent publication US20260184663A1, “INDENE COMPOUNDS, PHARMACEUTICAL COMPOSITIONS THEREOF, AND THEIR THERAPEUTIC APPLICATIONS” (NucMito Pharmaceuticals co. Ltd., priority 2022, published 2026)

What was measured:
Assay type in all cases: cell-based
[1] = system: alpha-smooth muscle actin (α-SMA); experiment: Inhibition of TGF-β induced expression of alpha-smooth muscle actin (α-SMA) in CFSC cells (western blot); conditions: compound at 10 μM, TGF-β (10 ng/mL), 24 hours, band intensity vs TGF-β only
Procedure, shortened: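 Values are percent reduction of α-SMA band intensity relative to cells given TGF-β alone, quantified by Western blot densitometry with β-actin probed. Compound was applied at 10 μM alongside 10 ng/mL TGF-β to serum-free CFSC cultures for 24 h at 37 °C.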

[2] = system: MDA-MB-231 (breast cancer); experiment: Antiproliferative activity (CCK-8 cell viability), MDA-MB-231; conditions: Homo sapiens, 72 h; for inhibition at 3.3 µM: Compound concentration: 3.3 μM; for inhibition at 3.3 µM / inhibition at 10 µM: read-out: Antiproliferative activity in cancerous cells, MDA-MB-231 (inhibition of cell growth); for inhibition at 10 µM: Compound concentration: 10 μM
Procedure, shortened: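 Growth inhibition of human MDA-MB-231 breast cancer cells was assessed with a Cell Counting Kit-8. Cells cultured in DMEM plus 10% FBS were seeded at 2,000-5,000 cells/well, treated after attachment, and kept 72 h at 37° C. CCK-8 solution (10 μL) was added for 4 h, and absorbance at 450 nm was compared with DMSO-treated controls.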

[3] = system: HepG2 (liver cancer); experiment: Antiproliferative activity (CCK-8 cell viability), HepG2; conditions: Homo sapiens, 72 h; for inhibition at 3.3 µM: Compound concentration: 3.3 μM; for inhibition at 3.3 µM / inhibition at 10 µM: read-out: Antiproliferative activity in cancerous cells, HepG2 (inhibition of cell growth); for inhibition at 10 µM: Compound concentration: 10 μM
Procedure, shortened: (§1)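 Growth inhibition graded in bands from percent viability against DMSO vehicle, read as CCK-8 absorbance at 450 nm. Compound tested at 3.3, 10 or 30 μM for 72 h, 37 °C; media contained 10% FBS: DMEM for HepG2/SW480, MEM for HeLa, F-12K for A549.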

[4] = system: SW480 (colon cancer); experiment: Antiproliferative activity (CCK-8 cell viability), SW480; conditions: Homo sapiens, 72 h, read-out: Antiproliferative activity in cancerous cells, SW480 (inhibition of cell growth); for inhibition at 3.3 µM: Compound concentration: 3.3 μM; for inhibition at 10 µM: Compound concentration: 10 μM
Procedure, shortened: as §1

[5] = system: B16F10 (malignant melanoma); experiment: Antiproliferative activity (CCK-8 cell viability), B16F10; conditions: Mus musculus, 72 h, read-out: Antiproliferative activity in cancerous cells, B16F10 (inhibition of cell growth); for inhibition at 3.3 µM: B16-F10, Compound concentration: 3.3 μM; for inhibition at 10 µM: B16-F10, Compound concentration: 10 μM
Procedure, shortened: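 Cell growth inhibition was measured in B16F10 malignant melanoma cells with a Cell Counting Kit-8 viability assay. Cells were maintained in DMEM plus 10% fetal bovine serum, seeded at 2,000-5,000 cells/well in 96-well plates, and treated for 72 h at 37° C. Viability was expressed relative to DMSO-treated vehicle control wells.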

[6] = system: A431 (epidermoid carcinoma); experiment: Antiproliferative activity (CCK-8 cell viability), A431; conditions: Homo sapiens, 72 h, read-out: Antiproliferative activity in cancerous cells, A431 (inhibition of cell growth); for inhibition at 3.3 µM: A-431, Compound concentration: 3.3 μM; for inhibition at 10 µM: A-431, Compound concentration: 10 μM
Procedure, shortened: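 This growth inhibition assay used A431 cells maintained in Dulbecco's modified Eagle's medium plus 10% fetal bovine serum. Cells were seeded in 96-well plates, treated with compound for 72 h at 37° C., and then given 10 μL CCK-8 solution. After a further 4 h, absorbance was read at 450 nm.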

[7] = system: A549 (lung adenocarcinoma); experiment: Antiproliferative activity (CCK-8 cell viability), A549; conditions: Homo sapiens, 72 h; for inhibition at 3.3 µM: Compound concentration: 3.3 μM; for inhibition at 3.3 µM / inhibition at 10 µM: read-out: Antiproliferative activity in cancerous cells, A549 (inhibition of cell growth); for inhibition at 10 µM: Compound concentration: 10 μM; for inhibition at 30 µM: Compound concentration: 30 μM, read-out: Antiproliferative activity in cancerous cells, A549
Procedure, shortened: as §1

[8] = system: HeLa (cervical cancer); experiment: Antiproliferative activity (CCK-8 cell viability), HeLa; conditions: Homo sapiens, 72 h; for inhibition at 3.3 µM: Compound concentration: 3.3 μM; for inhibition at 3.3 µM / inhibition at 10 µM: read-out: Antiproliferative activity in cancerous cells, HELA (inhibition of cell growth); for inhibition at 10 µM: Compound concentration: 10 μM
Procedure, shortened: as §1

CC1=C(CC(=O)O)c2cc(C)ccc2/C1=C\c1ccc(COc2ccccc2)cc1 [B4, (Z)-2-(2,5-Dimethyl-1-(4-(phenoxymethyl)benzylidene)-1H-inden-3-yl)acetic acid]
inhibition at 10 µM [1]: < 30%
inhibition at 3.3 µM [2]: 30 to 50%
inhibition at 10 µM [2]: 30 to 50%
inhibition at 30 µM ([2]; Compound concentration: 30 μM, read-out: Antiproliferative activity in cancerous cells, MDA-MB-231): < 30%
inhibition at 3.3 µM [3]: 30 to 50%
inhibition at 10 µM [3]: < 30%
inhibition at 30 µM ([3]; Compound concentration: 30 μM, read-out: Antiproliferative activity in cancerous cells, HepG2): < 30%
inhibition at 3.3 µM [4]: < 30%
inhibition at 10 µM [4]: 30 to 50%
inhibition at 3.3 µM [5]: ≥ 50%
inhibition at 10 µM [5]: ≥ 50%
inhibition at 3.3 µM [6]: ≥ 50%
inhibition at 10 µM [6]: < 30%
inhibition at 3.3 µM [7]: 30 to 50%
inhibition at 10 µM [7]: 30 to 50%
inhibition at 30 µM [7]: 30 to 50%
inhibition at 3.3 µM [8]: < 30%
inhibition at 10 µM [8]: 30 to 50%
inhibition at 30 µM ([8]; Compound concentration: 30 μM, read-out: Antiproliferative activity in cancerous cells, HELA): 30 to 50%

CCc1ccc2c(c1)C(CC(=O)O)=C(C)/C2=C/c1ccc(COc2ccccc2)cc1 [B5, (Z)-2-(5-Ethyl-2-methyl-1-(4-(phenoxymethyl)benzylidene)-1H-inden-3-yl)acetic acid]
inhibition at 10 µM [1]: > 80%
inhibition at 3.3 µM [2]: < 30%
inhibition at 10 µM [2]: ≥ 50%
inhibition at 3.3 µM [3]: ≥ 50%
inhibition at 10 µM [3]: ≥ 50%
inhibition at 3.3 µM [4]: ≥ 50%
inhibition at 10 µM [4]: ≥ 50%
inhibition at 3.3 µM [5]: ≥ 50%
inhibition at 10 µM [5]: ≥ 50%
inhibition at 3.3 µM [6]: ≥ 50%
inhibition at 10 µM [6]: ≥ 50%
inhibition at 3.3 µM [7]: 30 to 50%
inhibition at 10 µM [7]: ≥ 50%
inhibition at 3.3 µM [8]: < 30%
inhibition at 10 µM [8]: ≥ 50%

CC1=C(CC(=O)O)c2c(F)cccc2/C1=C\c1ccc(COc2ccccc2)cc1 [B6, (Z)-2-(4-Fluoro-2-methyl-1-(4-(phenoxymethyl)benzylidene)-1H-inden-3-yl)-acetic acid]
inhibition at 10 µM [1]: > 80%
inhibition at 3.3 µM [2]: ≥ 50%
inhibition at 10 µM [2]: ≥ 50%
inhibition at 3.3 µM [3]: < 30%
inhibition at 10 µM [3]: ≥ 50%
inhibition at 3.3 µM [4]: < 30%
inhibition at 10 µM [4]: < 30%
inhibition at 3.3 µM [5]: < 30%
inhibition at 10 µM [5]: 30 to 50%
inhibition at 3.3 µM [6]: < 30%
inhibition at 10 µM [6]: ≥ 50%
inhibition at 3.3 µM [7]: 30 to 50%
inhibition at 10 µM [7]: 30 to 50%
inhibition at 3.3 µM [8]: < 30%
inhibition at 10 µM [8]: ≥ 50%

CC1=C(CC(=O)O)c2cc(F)cc(F)c2/C1=C\c1cccc(COc2ccccc2)c1 [B7, (Z)-2-(5,7-Difluoro-2-methyl-1-(3-(phenoxymethyl)benzylidene)-1H-inden-3-yl)-acetic acid]
inhibition at 10 µM [1]: > 80%
inhibition at 3.3 µM [2]: ≥ 50%
inhibition at 10 µM [2]: ≥ 50%
inhibition at 3.3 µM [3]: 30 to 50%
inhibition at 10 µM [3]: 30 to 50%
inhibition at 3.3 µM [4]: ≥ 50%
inhibition at 10 µM [4]: ≥ 50%
inhibition at 3.3 µM [5]: < 30%
inhibition at 10 µM [5]: 30 to 50%
inhibition at 3.3 µM [6]: 30 to 50%
inhibition at 10 µM [6]: ≥ 50%
inhibition at 3.3 µM [7]: < 30%
inhibition at 10 µM [7]: 30 to 50%
inhibition at 3.3 µM [8]: ≥ 50%
inhibition at 10 µM [8]: 30 to 50%

COc1ccc2c(c1)/C(=C\c1cccc(COc3ccccc3)c1)C(C)=C2CC(=O)O [B8, (Z)-2-(6-Methoxy-2-methyl-1-(3-(phenoxymethyl)benzylidene)-1H-inden-3-yl)-acetic acid]
inhibition at 10 µM [1]: > 80%
inhibition at 3.3 µM [2]: < 30%
inhibition at 10 µM [2]: 30 to 50%
inhibition at 3.3 µM [3]: 30 to 50%
inhibition at 10 µM [3]: 30 to 50%
inhibition at 3.3 µM [4]: ≥ 50%
inhibition at 10 µM [4]: ≥ 50%
inhibition at 3.3 µM [5]: < 30%
inhibition at 10 µM [5]: ≥ 50%
inhibition at 3.3 µM [6]: 30 to 50%
inhibition at 10 µM [6]: ≥ 50%
inhibition at 3.3 µM [7]: ≥ 50%
inhibition at 10 µM [7]: ≥ 50%
inhibition at 3.3 µM [8]: 30 to 50%
inhibition at 10 µM [8]: ≥ 50%

CC1=C(CC(=O)O)c2cccc(F)c2/C1=C\c1cccc(COc2ccccc2)c1 [B9, (Z)-2-(7-Fluoro-2-methyl-1-(3-(phenoxymethyl)benzylidene)-1H-inden-3-yl)-acetic acid]
inhibition at 10 µM [1]: 50 to 80%
inhibition at 3.3 µM [2]: 30 to 50%
inhibition at 10 µM [2]: 30 to 50%
inhibition at 3.3 µM [3]: < 30%
inhibition at 10 µM [3]: < 30%
inhibition at 3.3 µM [4]: < 30%
inhibition at 10 µM [4]: < 30%
inhibition at 3.3 µM [5]: < 30%
inhibition at 10 µM [5]: ≥ 50%
inhibition at 3.3 µM [6]: < 30%
inhibition at 10 µM [6]: < 30%
inhibition at 3.3 µM [7]: 30 to 50%
inhibition at 10 µM [7]: 30 to 50%
inhibition at 30 µM [7]: 30 to 50%
inhibition at 3.3 µM [8]: < 30%
inhibition at 10 µM [8]: 30 to 50%

CC1=C(CC(=O)O)c2ccc(F)cc2/C1=C\c1cccc(COc2ccccc2)c1 [B10, (Z)-2-(6-Fluoro-2-methyl-1-(3-(phenoxymethyl)benzylidene)-1H-inden-3-yl)-acetic acid]
inhibition at 10 µM [1]: > 80%
inhibition at 3.3 µM [2]: 30 to 50%
inhibition at 10 µM [2]: ≥ 50%
inhibition at 3.3 µM [3]: 30 to 50%
inhibition at 10 µM [3]: ≥ 50%
inhibition at 3.3 µM [4]: < 30%
inhibition at 10 µM [4]: < 30%
inhibition at 3.3 µM [5]: < 30%
inhibition at 10 µM [5]: ≥ 50%
inhibition at 3.3 µM [6]: < 30%
inhibition at 10 µM [6]: ≥ 50%
inhibition at 3.3 µM [7]: < 30%
inhibition at 10 µM [7]: ≥ 50%
inhibition at 3.3 µM [8]: < 30%
inhibition at 10 µM [8]: < 30%

CCc1ccc2c(c1)C(CC(=O)O)=C(C)/C2=C/c1cccc(COc2ccccc2)c1 [B11, (Z)-2-(5-Ethyl-2-methyl-1-(3-(phenoxymethyl)benzylidene)-1H-inden-3-yl)acetic acid]
inhibition at 10 µM [1]: > 80%
inhibition at 3.3 µM [2]: 30 to 50%
inhibition at 10 µM [2]: ≥ 50%
inhibition at 3.3 µM [3]: ≥ 50%
inhibition at 10 µM [3]: ≥ 50%
inhibition at 3.3 µM [4]: ≥ 50%
inhibition at 10 µM [4]: ≥ 50%
inhibition at 3.3 µM [5]: ≥ 50%
inhibition at 10 µM [5]: ≥ 50%
inhibition at 3.3 µM [6]: ≥ 50%
inhibition at 10 µM [6]: ≥ 50%
inhibition at 3.3 µM [7]: 30 to 50%
inhibition at 10 µM [7]: ≥ 50%
inhibition at 3.3 µM [8]: < 30%
inhibition at 10 µM [8]: ≥ 50%

CC1=C(CC(=O)O)c2cc(C)ccc2/C1=C\c1cccc(COc2ccccc2)c1 [B12, (Z)-2-(2,5-Dimethyl-1-(3-(phenoxymethyl)benzylidene)-1H-inden-3-yl)acetic acid]
inhibition at 10 µM [1]: > 80%
inhibition at 3.3 µM [2]: ≥ 50%
inhibition at 10 µM [2]: ≥ 50%
inhibition at 3.3 µM [3]: < 30%
inhibition at 10 µM [3]: ≥ 50%
inhibition at 3.3 µM [4]: < 30%
inhibition at 10 µM [4]: < 30%
inhibition at 3.3 µM [5]: < 30%
inhibition at 10 µM [5]: 30 to 50%
inhibition at 3.3 µM [6]: ≥ 50%
inhibition at 10 µM [6]: ≥ 50%
inhibition at 3.3 µM [7]: 30 to 50%
inhibition at 10 µM [7]: ≥ 50%
inhibition at 3.3 µM [8]: < 30%
inhibition at 10 µM [8]: ≥ 50%
